test system: Sphaerotheca fuliginea; assay: Spaerotheca test (cucumber)/protective; format: in vivo; conditions: application rate 100 g/ha; protective; evaluation 7 days after inoculation
Description: (§1) [table] To produce a suitable preparation of active compound, 1 part by weight of active compound is mixed with the stated amounts of solvents and emulsifier, and the concentrate is diluted with water to the desired concentration. To test for protective activity, young plants are sprayed with the preparation of active compound at the stated application rate. After the spray coating has dried on, the plants are inoculated with an aqueous spore suspension of Sphaerotheca fuliginea. The plants are then placed in a greenhouse at about 23° C. and a relative atmospheric humidity of about 70%. Evaluation is carried out 7 days after the inoculation. 0% means an efficacy which corresponds to that of the control, whereas an efficacy of 100% means that no infection is observed.

Row | Compound | Efficacy in %
1 | CC(CC(C)(C)C)c1ccccc1NC(=O)c1c(C(F)(F)F)nn(C)c1F (stereo not shown) [drawing 32] | 100%
2 | CC(C)CC(C)c1ccccc1NC(=O)c1c(C(F)(F)F)nn(C)c1F (stereo not shown) [drawing 33] | 100%
3 | CCC(C)(C)CC(C)c1ccccc1NC(=O)c1c(C(F)(F)F)nn(C)c1F (stereo not shown) [drawing 34] | 98%

test system: Botrytis cinerea; assay: Botrytis test (bean)/protective; format: in vivo; conditions: application rate 500 g/ha; protective; evaluation two days after inoculation
Description: [table] To produce a suitable preparation of active compound, 1 part by weight of active compound is mixed with the stated amounts of solvents and emulsifier, and the concentrate is diluted with water to the desired concentration. To test for protective activity, young plants are sprayed with the preparation of active compound at the stated application rate. After the spray coating has dried on, 2 small pieces of agar colonized by Botrytis cinerea are placed onto each leaf. The inoculated plants are placed in a dark chamber at about 20° C. and 100% relative atmospheric humidity. Two days after the inoculation, the size of the infected areas on the leaves is evaluated. 0% means an efficacy which corresponds to that of the control, whereas an efficacy of 100% means that no infection is observed.

Row | Compound | Efficacy in %
4 | CC(CC(C)(C)C)c1ccccc1NC(=O)c1c(C(F)(F)F)nn(C)c1F (stereo not shown) [drawing 38] | 100%
5 | CC(C)CC(C)c1ccccc1NC(=O)c1c(C(F)(F)F)nn(C)c1F (stereo not shown) [drawing 39] | 100%
6 | CCC(C)(C)CC(C)c1ccccc1NC(=O)c1c(C(F)(F)F)nn(C)c1F (stereo not shown) [drawing 40] | 95%

test system: Puccinia recondita; assay: Puccinia test (wheat)/protective; format: in vivo; conditions: application rate 500 g/ha; protective; evaluation 10 days after inoculation
Description: • Solvent: 25 parts by weight of N,N-dimethylacetamide • Emulsifier: 0.6 part by weight of alkylaryl polyglycol ether To produce a suitable preparation of active compound, 1 part by weight of active compound is mixed with the stated amounts of solvent and emulsifier, and the concentrate is diluted with water to the desired concentration. To test for protective activity, young plants are sprayed with the preparation of active compound at the stated application rate. After the spray coating has dried on, the plants are sprayed with a conidia suspension of Puccinia recondita. The plants remain in an incubation cabin at 20° C. and 100% relative atmospheric humidity for 48 hours. The plants are then placed in a greenhouse at a temperature of about 20° C. and a relative atmospheric humidity of 80% to promote the development of rust pustules. Evaluation is carried out 10 days after the inoculation. 0% means an efficacy which corresponds to that of the control, whereas an efficacy of 100% means that no infection is observed.

Row | Compound | Efficacy in %
7 | CC(CC(C)(C)C)c1ccccc1NC(=O)c1c(C(F)(F)F)nn(C)c1F (stereo not shown) [drawing 30] | 100%
8 | CC(C)CC(C)c1ccccc1NC(=O)c1c(C(F)(F)F)nn(C)c1F (stereo not shown) [drawing 31] | 100%

test system: Venturia inaequalis; assay: Venturia test (apple)/protective; format: in vivo; conditions: application rate 100 g/ha; protective; evaluation 10 days after inoculation
Description: as §1, with “conidia” for “spore”, “the apple scab pathogen Venturia inaequalis and then remain in an incubation cabin at about 20° C. and 100% relative atmospheric humidity for 1 day.” for “Sphaerotheca fuliginea.”, “21°” for “23°”, “90%.” for “70%.”, “10” for “7”

Row | Compound | Efficacy in %
9 | CC(CC(C)(C)C)c1ccccc1NC(=O)c1c(C(F)(F)F)nn(C)c1F (stereo not shown) [drawing 35] | 100%
10 | CC(C)CC(C)c1ccccc1NC(=O)c1c(C(F)(F)F)nn(C)c1F (stereo not shown) [drawing 36] | 100%
11 | CCC(C)(C)CC(C)c1ccccc1NC(=O)c1c(C(F)(F)F)nn(C)c1F (stereo not shown) [drawing 37] | 99%

test system: not listed separately; assay: logP determination by HPLC on reversed-phase column (C 18), pH 2.3; format: physicochemical; conditions: reversed-phase HPLC column (C 18), HPLC reversed-phase C 18, 43° C.
Description: The logP values given in the preparation examples and the tables above are determined in accordance with EEC Directive 79/831 Annex V.A8 by HPLC (High Performance Liquid Chromatography) on a reversed-phase column (C 18). Temperature: 43° C. The determination is carried out in the acidic range at pH 2.3 using the mobile phases 0.1% aqueous phosphoric acid and acetonitrile; linear gradient from 10% acetonitrile to 90% acetonitrile. Calibration is carried out using unbranched alkan-2-ones (having 3 to 16 carbon atoms) with known logP values (determination of the logP values by retention times using linear interpolation between two successive alkanones).

Row | Compound | chromatographic logP
12 | CC(CC(C)(C)C)c1ccccc1NC(=O)c1c(C(F)(F)F)nn(C)c1F (stereo not shown) [Example 1, [5-fluoro-1-methyl-3-(trifluoromethyl)pyrazol-4-yl]-N-[2-(1,3,3-trimethylbutyl)phenyl]carbox-amide] | 4.14
13 | CC(C)CC(C)c1ccccc1NC(=O)c1c(C(F)(F)F)nn(C)c1F (stereo not shown) [Example 2] | 3.88
14 | CCC(C)(C)CC(C)c1ccccc1NC(=O)c1c(C(F)(F)F)nn(C)c1F (stereo not shown) [Example 3] | 4.45
15 | CCC(CC(C)C)c1ccccc1NC(=O)c1c(C(F)(F)F)nn(C)c1F (stereo not shown) [Example 4] | 4.27
16 | CC(C)CC(C)c1cc(F)ccc1NC(=O)c1c(C(F)(F)F)nn(C)c1F (stereo not shown) [Example 5] | 3.92

test system: Alternaria mali; assay: In vitro test for the ED50 determination in microorganisms; format: cell-based; conditions: 50% inhibition of fungal growth, 22° C., 3-5 days, photometric at 620 nm
Description: A methanolic solution of the active compound to be tested, mixed with emulsifier PS16, is pipetted into the wells of a microtiter plate. After the solvent has evaporated, 200 μl of potato dextrose medium are added to each well. Beforehand, a suitable concentration of spores or mycelium of the fungus to be tested was added to the medium. The resulting concentrations of active compound are 0.1, 1, 10 and 100 ppm. The resulting concentration of the emulsifier is 300 ppm. The plates are then incubated on a shaker at a temperature of 22° C. for 3-5 days, until sufficient growth can be observed in the untreated control. Evaluation is carried out photometrically at a wavelength of 620 nm. The dose of active compound which causes 50% inhibition of fungal growth compared to the untreated control (ED50) is calculated from data measured at different concentrations.

Row | Compound | ED50 value in ppm
17 | CC(CC(C)(C)C)c1ccccc1NC(=O)c1c(C(F)(F)F)nn(C)c1F (stereo not shown) [drawing 41] | <0.1 ppm
18 | CC(C)CC(C)c1ccccc1NC(=O)c1c(C(F)(F)F)nn(C)c1F (stereo not shown) [drawing 42] | 0.28 ppm
19 | CCC(C)(C)CC(C)c1ccccc1NC(=O)c1c(C(F)(F)F)nn(C)c1F (stereo not shown) [drawing 43] | <0.1 ppm
